Laboratory results from patent US8192962B2, “Processes for detecting toxic substances” (Daikin Industries, Ltd., priority 2001, dated 2012).

Test system: Detoxification protein genes
Test: DNA chip mRNA expression in yeast, detoxification protein genes (Table 8)
Type: cell-based, Saccharomyces cerevisiae S288C
Summary of the method: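 Cells were grown at 25° C. in YPD, treated at logarithmic phase for 2 h with a chemical at a concentration inhibiting growth but not causing death, and compared with untreated cultures. Labeled cDNA was hybridized to a DNA chip carrying all yeast genes, and the expression ratio was taken from scanner fluorescence.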

N#Cc1c(Cl)c(Cl)c(Cl)c(C#N)c1Cl [(9), 2,4,5,6-tetrachloro-1,3-benzenedicarbonitrile]
The level of expressed mRNA in the presence of chemical substance/The level of expressed mRNA in the absence of chemical substance (yeast gene YBL064C): 4.5 | The level of expressed mRNA in the presence of chemical substance/The level of expressed mRNA in the absence of chemical substance (yeast gene YBR008C): 54.6 | The level of expressed mRNA in the presence of chemical substance/The level of expressed mRNA in the absence of chemical substance (yeast gene YBR145W): 0.1 | The level of expressed mRNA in the presence of chemical substance/The level of expressed mRNA in the absence of chemical substance (yeast gene YBR244W): 1.4 | The level of expressed mRNA in the presence of chemical substance/The level of expressed mRNA in the absence of chemical substance (yeast gene YBR293W): 5.5 | The level of expressed mRNA in the presence of chemical substance/The level of expressed mRNA in the absence of chemical substance (yeast gene YCL035C): 1.9 | The level of expressed mRNA in the presence of chemical substance/The level of expressed mRNA in the absence of chemical substance (yeast gene YCL069W): 1.2 | The level of expressed mRNA in the presence of chemical substance/The level of expressed mRNA in the absence of chemical substance (yeast gene YCR083W): 1.8 | The level of expressed mRNA in the presence of chemical substance/The level of expressed mRNA in the absence of chemical substance (yeast gene YDL100C): 5.4 | The level of expressed mRNA in the presence of chemical substance/The level of expressed mRNA in the absence of chemical substance (yeast gene YDL168W): 8.2 | The level of expressed mRNA in the presence of chemical substance/The level of expressed mRNA in the absence of chemical substance (yeast gene YDR256C): 5.2 | The level of expressed mRNA in the presence of chemical substance/The level of expressed mRNA in the absence of chemical substance (yeast gene YDR453C): 4.5 | The level of expressed mRNA in the presence of chemical substance/The level of expressed mRNA in the absence of chemical substance (yeast gene YDR513W): 4.6 | The level of expressed mRNA in the presence of chemical substance/The level of expressed mRNA in the absence of chemical substance (yeast gene YDR538W): 0.3 | The level of expressed mRNA in the presence of chemical substance/The level of expressed mRNA in the absence of chemical substance (yeast gene YEL027W): 0.9 | The level of expressed mRNA in the presence of chemical substance/The level of expressed mRNA in the absence of chemical substance (yeast gene YEL065W): 0.1 | The level of expressed mRNA in the presence of chemical substance/The level of expressed mRNA in the absence of chemical substance (yeast gene YER185W): 2.9 | The level of expressed mRNA in the presence of chemical substance/The level of expressed mRNA in the absence of chemical substance (yeast gene YFL050C): 0.5 | The level of expressed mRNA in the presence of chemical substance/The level of expressed mRNA in the absence of chemical substance (yeast gene YGL013C): 3.0 | The level of expressed mRNA in the presence of chemical substance/The level of expressed mRNA in the absence of chemical substance (yeast gene YGL254W): 3.1 | The level of expressed mRNA in the presence of chemical substance/The level of expressed mRNA in the absence of chemical substance (yeast gene YGR088W): 1.5 | The level of expressed mRNA in the presence of chemical substance/The level of expressed mRNA in the absence of chemical substance (yeast gene YGR138C): 0.5 | The level of expressed mRNA in the presence of chemical substance/The level of expressed mRNA in the absence of chemical substance (yeast gene YGR197C): 16.7 | The level of expressed mRNA in the presence of chemical substance/The level of expressed mRNA in the absence of chemical substance (yeast gene YGR209C): 2.4 | The level of expressed mRNA in the presence of chemical substance/The level of expressed mRNA in the absence of chemical substance (yeast gene YGR224W): 0.9 | The level of expressed mRNA in the presence of chemical substance/The level of expressed mRNA in the absence of chemical substance (yeast gene YHL040C): 1.1 | The level of expressed mRNA in the presence of chemical substance/The level of expressed mRNA in the absence of chemical substance (yeast gene YHL047C): 1.2 | The level of expressed mRNA in the presence of chemical substance/The level of expressed mRNA in the absence of chemical substance (yeast gene YHR008C): 1.7 | The level of expressed mRNA in the presence of chemical substance/The level of expressed mRNA in the absence of chemical substance (yeast gene YHR048W): 4.5 | The level of expressed mRNA in the presence of chemical substance/The level of expressed mRNA in the absence of chemical substance (yeast gene YHR053C): 4.5 | The level of expressed mRNA in the presence of chemical substance/The level of expressed mRNA in the absence of chemical substance (yeast gene YHR055C): 3.9 | The level of expressed mRNA in the presence of chemical substance/The level of expressed mRNA in the absence of chemical substance (yeast gene YIR002C): 1.7 | The level of expressed mRNA in the presence of chemical substance/The level of expressed mRNA in the absence of chemical substance (yeast gene YIR038C): 4.6 | The level of expressed mRNA in the presence of chemical substance/The level of expressed mRNA in the absence of chemical substance (yeast gene YJL101C): 3.1 | The level of expressed mRNA in the presence of chemical substance/The level of expressed mRNA in the absence of chemical substance (yeast gene YJR104C): 1.9 | The level of expressed mRNA in the presence of chemical substance/The level of expressed mRNA in the absence of chemical substance (yeast gene YKL026C): 7.5 | The level of expressed mRNA in the presence of chemical substance/The level of expressed mRNA in the absence of chemical substance (yeast gene YKL064W): 2.4 | The level of expressed mRNA in the presence of chemical substance/The level of expressed mRNA in the absence of chemical substance (yeast gene YKR066C): 0.7 | The level of expressed mRNA in the presence of chemical substance/The level of expressed mRNA in the absence of chemical substance (yeast gene YKR105C): 1.0 | The level of expressed mRNA in the presence of chemical substance/The level of expressed mRNA in the absence of chemical substance (yeast gene YKR106W): 10.5 | The level of expressed mRNA in the presence of chemical substance/The level of expressed mRNA in the absence of chemical substance (yeast gene YLL028W): 1.2 | The level of expressed mRNA in the presence of chemical substance/The level of expressed mRNA in the absence of chemical substance (yeast gene YLL057C): 121.8 | The level of expressed mRNA in the presence of chemical substance/The level of expressed mRNA in the absence of chemical substance (yeast gene YLL060C): 13.0 | The level of expressed mRNA in the presence of chemical substance/The level of expressed mRNA in the absence of chemical substance (yeast gene YLR043C): 2.8 | The level of expressed mRNA in the presence of chemical substance/The level of expressed mRNA in the absence of chemical substance (yeast gene YLR046C): 1.0 | The level of expressed mRNA in the presence of chemical substance/The level of expressed mRNA in the absence of chemical substance (yeast gene YML028W): 0.8 | The level of expressed mRNA in the presence of chemical substance/The level of expressed mRNA in the absence of chemical substance (yeast gene YML116W): 1.4 | The level of expressed mRNA in the presence of chemical substance/The level of expressed mRNA in the absence of chemical substance (yeast gene YMR015C): 0.1 | The level of expressed mRNA in the presence of chemical substance/The level of expressed mRNA in the absence of chemical substance (yeast gene YMR038C): 2.4 | The level of expressed mRNA in the presence of chemical substance/The level of expressed mRNA in the absence of chemical substance (yeast gene YNL239W): 2.5 | The level of expressed mRNA in the presence of chemical substance/The level of expressed mRNA in the absence of chemical substance (yeast gene YNL241C): 3.4 | The level of expressed mRNA in the presence of chemical substance/The level of expressed mRNA in the absence of chemical substance (yeast gene YNL259C): 1.6 | The level of expressed mRNA in the presence of chemical substance/The level of expressed mRNA in the absence of chemical substance (yeast gene YOL158C): 1.7 | The level of expressed mRNA in the presence of chemical substance/The level of expressed mRNA in the absence of chemical substance (yeast gene YOR031W): 0.7 | The level of expressed mRNA in the presence of chemical substance/The level of expressed mRNA in the absence of chemical substance (yeast gene YOR153W): 3.2 | The level of expressed mRNA in the presence of chemical substance/The level of expressed mRNA in the absence of chemical substance (yeast gene YOR247W): 0.1 | The level of expressed mRNA in the presence of chemical substance/The level of expressed mRNA in the absence of chemical substance (yeast gene YOR251C): 0.8 | The level of expressed mRNA in the presence of chemical substance/The level of expressed mRNA in the absence of chemical substance (yeast gene YOR273C): 0.6 | The level of expressed mRNA in the presence of chemical substance/The level of expressed mRNA in the absence of chemical substance (yeast gene YPL163C): 0.1 | The level of expressed mRNA in the presence of chemical substance/The level of expressed mRNA in the absence of chemical substance (yeast gene YPR200C): 4.7
